Data from US9382295B2, “Cyclic depsipeptide compounds and their uses” (Cypralis Limited, priority 2012, dated 2016).
Converted amounts (≈) assume the structure as drawn. Where two headings read alike, the source gives them in different places. Numbered stars: 1 amine (or outer) side, 2 acyl side, 3 side chain; on linkers, the order of the positions; unused ones are H or OH. Square brackets hold non-standard residues; d marks the D form. Peptide text beside a SMILES is read from it. X13 = C[C@H](CCN(Cc1ccccn1)Cc1ccccn1)[C@@H](O)[C@H](C(=O)[*:2])N(C)[*:1]; X28 = C[C@H](CCN1CCC(c2ccccc2)CC1)[C@@H](O)[C@H](C(=O)[*:2])N(C)[*:1]; X32 = CC(=O)N(CC[C@@H](C)[C@@H](O)[C@H](C(=O)[*:2])N(C)[*:1])C(C)C; X24 = C[C@H](CCN(C)CC1COCCO1)[C@@H](O)[C@H](C(=O)[*:2])N(C)[*:1]; X1 = Cc1cccc(CCC[C@@H](C)[C@@H](O)[C@H](C(=O)[*:2])N(C)[*:1])n1; X21 = C[C@H](CCN(C)C1CCOCC1)[C@@H](O)[C@H](C(=O)[*:2])N(C)[*:1]; X8 = C[C@H](CCN1CCC[C@H]1CO)[C@@H](O)[C@H](C(=O)[*:2])N(C)[*:1]; X31 = COCCN(C)CC[C@@H](C)[C@@H](O)[C@H](C(=O)[*:2])N(C)[*:1]; d(aThr) = C[C@@H](O)[C@@H](N)C(=O)O; NMeL = CN[C@@H](CC(C)C)C(=O)O; dNMeL = CN[C@H](CC(C)C)C(=O)O; dNMeV = CN[C@@H](C(=O)O)C(C)C; Hiv = CC(C)[C@H](O)C(=O)O; dAbu = CC[C@@H](N)C(=O)O; Sar = CNCC(=O)O

Legend:
cyclophilin A (Cyp A) = biological target: T1, cyclophilin A (Cyp A) (Homo sapiens, UniProt P62937); test: Protease-free PPIase assay, cyclophilin A; type: biochemical
T1 construct: purchased Sigma C3805
Method: (§1) The protease-free PPIase assay measures the rate of cis to trans conversion of a peptide substrate catalyzed by the enzymes cyclophilin A and cyclophilin D. Addition of a cyclophilin inhibitor (e.g., a test compound) slows the catalyzed rate and a Ki value is obtained. […] 35 mM HEPES pH 7.8, filtered through a 0.2 μm filter. 50 μM DTT was added prior to use each day and then the buffer was stored on ice. Human recombinant cyclophilin A (Cyp A) (Sigma C3805) enzyme was diluted to 1 μM with enzyme dilution buffer (20 mM HEPES pH 7.8, 40% glycerol, 50 μM DTT and 1 μM BSA) and stored at -20° C. Succinimide-[…]) (from Bachem AG, L-1400), 20 mg/ml prepared in 0.5 M LiCl in trifluoroethanol. All readings were taken with an Agilent 8453 Spectrophotometer which consists of a cuvette holder, stirrer and chiller to maintain a stirred cuvette temperature of 10.0±0.1° C. The temperature is monitored by the use of temperature probe. […] The inhibitor was diluted in 100% DMSO, and then added to the assay to a maximum final concentration of 0.5% DMSO in the assay. A blank spectrum was obtained, then 3 μL of enzyme was added (2 nM final concentration) and then 3 μL substrate (60 μM final concentration) added. The absorbance was measured at 330 nm for 300 s or 500 s for blank runs (NOTE: the substrate must be added in one quick injection and the measurements started immediately to minimize mixing errors). A first order rate equation was fitted to the absorbance data, for each concentration of inhibitor, to obtain the rate constant (the first 10 to 15 seconds were excluded as mixing causes errors in this portion of curve). The catalytic rate was calculated from the enzymatic rate constant minus the background rate constant. An exponential curve was generated using the catalytic rate constants versus the inhibitor concentration to obtain the Ki value for the inhibitor. The Ki value is indicative of the binding affinity between the test compound and cyclophilin A or cyclophilin D.

cyclophilin D (Cyp D) = cyclophilin D (Cyp D) (Homo sapiens, UniProt P30405); test: Protease-free PPIase assay, cyclophilin D; type: biochemical
Method: as §1, with “ice.” for “ice. Human recombinant cyclophilin A (Cyp A) (Sigma C3805) enzyme was diluted to 1 μM with enzyme dilution buffer (20 mM HEPES pH 7.8, 40% glycerol, 50 μM DTT and 1 μM BSA) and stored at -20° C.”

[1] = Water solubility assay (pH 7.8 buffer); type: physicochemical
Method: ***Water Solubility Assay (Measured in pH 7.8 Buffer)
The onset of precipitation, if it occurred, was detected by an increase in absorbance at 650 nm.
Assay Buffer: 35 mM HEPES pH 7.8
Stock solutions of Control and Test Compounds: 10 mM in 100% DMSO
10 mM stock solutions of control and test compounds were prepared in 100% DMSO. A series of dilutions were prepared from the stock in DMSO so that the final concentrations in the assay were 0, 3.33, 10, 25, 50, 75 and 100 μM and DMSO was limited to 1%.
Assay buffer (247.5 μl) was placed into flat bottomed transparent 96-well plate. For blank samples DMSO (2.5 μl) was added. For test and control samples 2.5 μl of the appropriate DMSO dilution stocks were added to the appropriate well. All test and control compounds were performed in triplicate.
The plates were sealed with adhesive plate seal and shaken at 250 rpm at 25° C. for 18 h on a plate shaker.
After incubation the plate seals were taken off and any bubbles observed in wells removed. The plates were read on a SpectraMaxM5 with a 5 s pre-shake at 650 nm.
Data files were transferred to the appropriate worksheet and the solubility range of the compounds was calculated from the data.
The values shown in the tables indicate the concentration in μM (micromolar) at which the compound remains in solution.

[2] = protease-free PPIase assay, class symbols, read-out: CypA Ki
[3] = protease-free PPIase assay, class symbols, read-out: CypD Ki
[4] = 35 mM HEPES buffer, 35 mM HEPES pH 7.8, 1% DMSO, 25° C., 18 h, concentration at which compound remains in solution, read-out: Solubility

T1 sequence (P62937 whole entry): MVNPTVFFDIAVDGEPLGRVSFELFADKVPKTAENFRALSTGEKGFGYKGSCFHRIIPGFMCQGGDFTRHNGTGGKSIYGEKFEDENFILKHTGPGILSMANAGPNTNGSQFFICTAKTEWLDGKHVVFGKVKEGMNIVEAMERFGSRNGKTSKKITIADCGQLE
Chain of cyclophilin D (Cyp D) (P30405 30-207): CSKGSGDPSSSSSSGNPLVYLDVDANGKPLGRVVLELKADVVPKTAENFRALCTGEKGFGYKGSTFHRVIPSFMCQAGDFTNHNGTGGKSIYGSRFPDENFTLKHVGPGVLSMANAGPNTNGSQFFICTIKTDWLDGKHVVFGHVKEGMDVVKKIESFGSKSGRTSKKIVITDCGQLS

Compound	Ki (cyclophilin A (Cyp A); [2])	Ki (cyclophilin D (Cyp D); [3])	solubility at 18 h [1, 4]	Ki (cyclophilin A (Cyp A))	Ki (cyclophilin D (Cyp D))	solubility at 18 h ([1]; pH 7.8)
CC(C)C[C@@H]1C(=O)N[C@H](CC(C)C)C(=O)N(C)[C@H](C(C)C)C(=O)N(C)[C@H]([C@H](O)[C@H](C)CCN2CCC(c3ccccc3)CC2)C(=O)N[C@H]([C@@H](C)O)C(=O)N(C)CC(=O)N(C)[C@@H](CC(C)C)C(=O)N[C@H](CC(C)C)C(=O)N(C)[C@H](CC(C)C)C(=O)N[C@H](C)C(=O)O[C@@H](C(C)C)C(=O)N1C [Example 34, cyclo-[(3R,4R,5S)-4-(hydroxy)-3-methyl-5-(methylamino)-1-(4-phenyl-1-piperidyl)-hexanoic acid-Thr-Sar-MeLeu-Leu-MeLeu-Ala-D-Hiv-MeLeu-Leu-MeVal]] (cyclo([Hiv][dNMeL][dL][dNMeV][X28][d(aThr)][Sar][NMeL][dL][dNMeL][dA]))	1 to 25 nM	1 to 25 nM	10 to 25 µM (≈ 13.8 to 34.5 µg/mL)	–	–	–
CC(C)C[C@@H]1C(=O)N[C@H](CC(C)C)C(=O)N(C)[C@H](C(C)C)C(=O)N(C)[C@H]([C@H](O)[C@H](C)CCN(Cc2ccccn2)Cc2ccccn2)C(=O)N[C@H]([C@@H](C)O)C(=O)N(C)CC(=O)N(C)[C@@H](CC(C)C)C(=O)N[C@H](CC(C)C)C(=O)N(C)[C@H](CC(C)C)C(=O)N[C@H](C)C(=O)O[C@@H](C(C)C)C(=O)N1C [Example 30, cyclo-[(3R,4R,5S)-4-(hydroxy)-3-methyl-5-(methylamino)-1-N-(bis-pyridin-2-ylmethyl-amine)-hexanoic acid-Thr-Sar-MeLeu-Leu-MeLeu-Ala-D-Hiv-MeLeu-Leu-MeVal]] (cyclo([Hiv][dNMeL][dL][dNMeV][X13][d(aThr)][Sar][NMeL][dL][dNMeL][dA]))	25 to 100 nM	1 to 25 nM	10 to 25 µM (≈ 14.2 to 35.5 µg/mL)	–	–	–
COCCN(C)CC[C@@H](C)[C@@H](O)[C@@H]1C(=O)N[C@H]([C@@H](C)O)C(=O)N(C)CC(=O)N(C)[C@@H](CC(C)C)C(=O)N[C@H](CC(C)C)C(=O)N(C)[C@H](CC(C)C)C(=O)N[C@H](C)C(=O)O[C@@H](C(C)C)C(=O)N(C)[C@H](CC(C)C)C(=O)N[C@H](CC(C)C)C(=O)N(C)[C@H](C(C)C)C(=O)N1C [Example 10, cyclo-{(3R,4R,5S)-4-(hydroxy)-3-methyl-5-(methylamino)-1-N-[(2-methoxy-ethyl)-methyl-amino]-hexanoic acid-Thr-Sar-MeLeu-Leu-MeLeu-Ala-D-Hiv-MeLeu-Leu-MeVal}] (cyclo([Hiv][dNMeL][dL][dNMeV][X31][d(aThr)][Sar][NMeL][dL][dNMeL][dA]))	–	–	–	25 to 100 nM	1 to 25 nM	> 100 µM
CC(C)C[C@@H]1C(=O)N[C@H](CC(C)C)C(=O)N(C)[C@H](C(C)C)C(=O)N(C)[C@H]([C@H](O)[C@H](C)CCN(C)CC2COCCO2)C(=O)N[C@H]([C@@H](C)O)C(=O)N(C)CC(=O)N(C)[C@@H](CC(C)C)C(=O)N[C@H](CC(C)C)C(=O)N(C)[C@H](CC(C)C)C(=O)N[C@H](C)C(=O)O[C@@H](C(C)C)C(=O)N1C (stereo partly drawn) [Example 8, cyclo-{(3R,4R,5S)-4-(hydroxy)-3-methyl-5-(methylamino)-1-N-([1,4]dioxan-2-ylmethyl-methyl-amino)-hexanoic acid-Thr-Sar-MeLeu-Leu-MeLeu-Ala-D-Hiv-MeLeu-Leu-MeVal}] (cyclo([Hiv][dNMeL][dL][dNMeV][X24][d(aThr)][Sar][NMeL][dL][dNMeL][dA]))	25 to 100 nM	1 to 25 nM	> 100 µM	–	–	–
CC[C@H]1NC(=O)[C@@H]([C@H](O)[C@H](C)CCCc2cccc(C)n2)N(C)C(=O)[C@@H](C(C)C)N(C)C(=O)[C@@H](CC(C)C)NC(=O)[C@@H](CC(C)C)N(C)C(=O)[C@H](C(C)C)OC(=O)[C@@H](C)NC(=O)[C@@H](CC(C)C)N(C)C(=O)[C@@H](CC(C)C)NC(=O)[C@H](CC(C)C)N(C)C(=O)CN(C)C1=O [Example 21, cyclo-[(3R,4R,5S)-4-(hydroxy)-3-methyl-5-(methylamino)-1-(6-methyl-pyridin-2-yl)-heptanoic acid-Abu-Sar-MeLeu-Leu-MeLeu-Ala-D-Hiv-MeLeu-Leu-MeVal]] (cyclo([Hiv][dNMeL][dL][dNMeV][X1][dAbu][Sar][NMeL][dL][dNMeL][dA]))	–	–	–	1 to 25 nM	1 to 25 nM	10 to 25 µM (≈ 13.1 to 32.8 µg/mL)
CC(=O)N(CC[C@@H](C)[C@@H](O)[C@@H]1C(=O)N[C@H]([C@@H](C)O)C(=O)N(C)CC(=O)N(C)[C@@H](CC(C)C)C(=O)N[C@H](CC(C)C)C(=O)N(C)[C@H](CC(C)C)C(=O)N[C@H](C)C(=O)O[C@@H](C(C)C)C(=O)N(C)[C@H](CC(C)C)C(=O)N[C@H](CC(C)C)C(=O)N(C)[C@H](C(C)C)C(=O)N1C)C(C)C [Example 38, cyclo-[(3R,4R,5S)-1-(acetyl-isopropyl-amino)-4-hydroxy-3-methyl-5-methylamino-hexanoic acid-Thr-Sar-MeLeu-Leu-MeLeu-Ala-D-Hiv-MeLeu-Leu-MeVal]] (cyclo([Hiv][dNMeL][dL][dNMeV][X32][d(aThr)][Sar][NMeL][dL][dNMeL][dA]))	–	–	–	25 to 100 nM	1 to 25 nM	50 to 75 µM (≈ 66 to 99.1 µg/mL)
CC(C)C[C@@H]1C(=O)N[C@H](CC(C)C)C(=O)N(C)[C@H](C(C)C)C(=O)N(C)[C@H]([C@H](O)[C@H](C)CCN(C)C2CCOCC2)C(=O)N[C@H]([C@@H](C)O)C(=O)N(C)CC(=O)N(C)[C@@H](CC(C)C)C(=O)N[C@H](CC(C)C)C(=O)N(C)[C@H](CC(C)C)C(=O)N[C@H](C)C(=O)O[C@@H](C(C)C)C(=O)N1C [Example 12, cyclo-{(3R,4R,5S)-4-(hydroxy)-3-methyl-5-(methylamino)-1-N-(methyl-(tetrahydro-pyran-4-yl)-amino)-hexanoic acid-Thr-Sar-MeLeu-Leu-MeLeu-Ala-D-Hiv-MeLeu-Leu-MeVal}] (cyclo([Hiv][dNMeL][dL][dNMeV][X21][d(aThr)][Sar][NMeL][dL][dNMeL][dA]))	–	–	–	25 to 100 nM	1 to 25 nM	> 100 µM
CC(C)C[C@@H]1C(=O)N[C@H](CC(C)C)C(=O)N(C)[C@H](C(C)C)C(=O)N(C)[C@H]([C@H](O)[C@H](C)CCN2CCC[C@H]2CO)C(=O)N[C@H]([C@@H](C)O)C(=O)N(C)CC(=O)N(C)[C@@H](CC(C)C)C(=O)N[C@H](CC(C)C)C(=O)N(C)[C@H](CC(C)C)C(=O)N[C@H](C)C(=O)O[C@@H](C(C)C)C(=O)N1C [Example 26, cyclo-[(3R,4R,5S)-4-(hydroxy)-3-methyl-5-(methylamino)-1-N—((S)-1-Pyrrolidin-2-yl-methanol)-hexanoic acid-Thr-Sar-MeLeu-Leu-MeLeu-Ala-D-Hiv-MeLeu-Leu-MeVal]] (cyclo([Hiv][dNMeL][dL][dNMeV][X8][d(aThr)][Sar][NMeL][dL][dNMeL][dA]))	–	–	–	100 to 300 nM	25 to 100 nM	> 100 µM
